# Columns and labels:
# [1] = system: KURAMOCHI; test: drug sensitivity score (DSS2) on cancer cell count; higher = more sensitive; extreme values may be limits of the assay; settings: 72 h
# Summary of the method: (§1)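 Cancer cell counts came from 10× images (4 fields) of fixed cells immunostained for CK8/18 with Hoechst. The ovarian cancer cells had been grown alone or in 1:1 direct co-culture with lung or skin fibroblasts on 384-well plates pre-spotted acoustically with 528 approved and investigational compounds at 5 concentrations, then treated for 72 h. Breeze was used to derive a drug sensitivity score from logistic fits of the data.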
# [2] = system: OVCAR8; test: as above; settings: 72 h
# Summary of the method: as §1
# [3] = co-cultured fibroblast: BJHTERT
# [4] = co-cultured fibroblast: none (monoculture)
Structure (SMILES),"drug sensitivity score [1, 3] [DSS]",drug sensitivity score ([1]; co-cultured fibroblast: WI38) [DSS],"drug sensitivity score [1, 4] [DSS]","drug sensitivity score [2, 3] [DSS]",drug sensitivity score ([2]; co-cultured fibroblast: WI38) [DSS],"drug sensitivity score [2, 4] [DSS]"
NS(=O)(=O)OC[C@@H]1C[C@@H](n2ccc3c(N[C@H]4CCc5ccccc54)ncnc32)C[C@@H]1O [Pevonedistat],14,19.1,18.2,20.9,12.5,26.4
CCS(=O)(=O)c1cccc(-c2cc(C(=O)NC3CCN(C)CC3)c(C)c3[nH]c4ncc(C)cc4c23)c1 [TAK-901],11.8,15,13.7,9.4,8.3,7.1
N#Cc1ccnc(N2C(=O)CC[C@H]2C(=O)N(c2cncc(F)c2)[C@H](C(=O)NC2CC(F)(F)C2)c2ccccc2Cl)c1 [Ivosidenib],0,0,0,2.1,0.3,0.2
S=c1[nH]cnc2nc[nH]c12 [Mercaptopurine],0.1,0.3,0,0,0,5.4
CCN1CCN(Cc2ccc(Nc3ncc(F)c(-c4cc(F)c5nc(C)n(C(C)C)c5c4)n3)nc2)CC1 [Abemaciclib],5.5,7.8,0.2,9.4,0,2.4
COc1ccc(Cn2ccc3ccc(C(=O)NO)cc32)cc1,6.6,2.3,3.2,2.5,0.7,3
CC(C)n1cnc2c(NCCc3ccc(O)cc3)nc(-c3csc4ccccc34)nc21 [StemRegenin 1],4.3,2.8,1.7,2.8,0,1
O=C(Nc1cnn2ccc(N3CCC[C@@H]3c3cc(F)ccc3F)nc12)N1CC[C@H](O)C1 [Larotrectinib],0,0,0,0.2,1.6,0
CC(=O)Nc1ccc(C(=O)Nc2ccccc2N)cc1 [Tacedinaline],0,2.6,3.7,0,0,1.8
CN(c1ncccc1CNc1nc(Nc2ccc3c(c2)CC(=O)N3)ncc1C(F)(F)F)S(C)(=O)=O,11.5,10.7,12.6,8.5,6.6,6.2
C[C@H](Nc1ncnc2nc[nH]c12)c1cc2cccc(Cl)c2c(=O)n1-c1ccccc1 [Duvelisib],4.6,0.5,0.3,0.4,0,0
C[C@H](Nc1ncnc2[nH]cnc12)c1cc2ccc(F)cc2nc1-c1ccccn1 [AMG319],1.2,0,0,0,5.8,0
CC(C)(C)c1nc(-c2cccc(NS(=O)(=O)c3c(F)cccc3F)c2F)c(-c2ccnc(N)n2)s1 [Dabrafenib],0,0,0,0.2,15.2,0.5
CCC(C)(C)C(=O)O[C@H]1C[C@@H](C)C=C2C=C[C@H](C)[C@H](CC[C@@H]3C[C@@H](O)CC(=O)O3)[C@H]21 [Simvastatin],0.4,0,8.6,1.8,14.6,3.6
CNC(=O)c1ccccc1Nc1cc(Nc2ccc(N3CCOCC3)cc2OC)ncc1C(F)(F)F [VS-4718],9,7.9,14.2,6.7,3.5,8.5
CNC(=O)c1nn(C)c2c1C(C)(C)Cc1cnc(Nc3ccc(N4CCN(C)CC4)cc3)nc1-2 [Milciclib],11.2,9.8,10,13.9,12.3,11.4
CC(C)(C)Cn1c(N)nc2ccc(-c3[nH]c(C(C)(C)C)nc3-c3ccc(F)cc3)nc21 [Ralimetinib],10.8,1.7,0,0,0,2.5
CC[C@@H]1[C@H](F)C(=O)N[C@@H]1COc1nccc2cc(C(N)=O)c(OC)cc12,3.7,1.8,1.9,2.4,10.1,4
CC1(C)CNc2cc(NC(=O)c3cccnc3NCc3ccncc3)ccc21 [Motesanib],0.3,0.2,0,0,1,2
CN(C)C/C=C/C(=O)Nc1cc2c(Nc3ccc(F)c(Cl)c3)ncnc2cc1O[C@H]1CCOC1 [Afatinib],5.3,5,3.1,3.1,0,2.4
C[C@@H](Oc1ccc2[nH]nc(/C=C/c3cnn(CCO)c3)c2c1)c1c(Cl)cncc1Cl,5.7,2.2,6.7,8.2,9.2,8
C[C@@H]1C=C2C(=O)O[C@@H]3CC[C@H](C1)[C@]23O [Galiellalactone],6.9,8.2,3.5,0,3.9,0
COc1c(C)cnc(Cn2cnc3c(Cl)nc(N)nc32)c1C [BIIB021],13.6,21.1,15.6,21.5,21.8,24
O=C(/C=C\n1cnc(-c2cc(C(F)(F)F)cc(C(F)(F)F)c2)n1)NNc1cnccn1 [Selinexor],17.1,21.8,25.3,22.4,24.3,27.1
N#Cc1ccc(COC[C@H]2O[C@@H](n3c(NCc4ccc(Cl)c(Cl)c4)nc4c(N)ncnc43)[C@H](O)[C@@H]2O)cc1,4.2,3.3,3.1,1,0,5.5

Structure (SMILES),"drug sensitivity score [1, 3] [DSS]",drug sensitivity score ([1]; co-cultured fibroblast: WI38) [DSS],"drug sensitivity score [1, 4] [DSS]","drug sensitivity score [2, 3] [DSS]",drug sensitivity score ([2]; co-cultured fibroblast: WI38) [DSS],"drug sensitivity score [2, 4] [DSS]"
COc1cc([C@@H]2c3cc4c(cc3[C@@H](O[C@@H]3O[C@@H]5CO[C@@H](C)O[C@H]5[C@H](O)[C@H]3O)[C@H]3COC(=O)[C@H]23)OCO4)cc(OC)c1O [Etoposide],11.7,13.8,16.1,11.8,13.1,13.9
CCN(CC)CCNC(=O)c1c(C)[nH]c(/C=C2\C(=O)Nc3ccc(-c4csc(-c5ccccc5)n4)cc32)c1C [Amcasertib],8.1,3.9,6.7,3.3,3.1,0
COc1cccc2c1c(O)c(C(=O)N(C)c1ccc(C(F)(F)F)cc1)c(=O)n2C [Tasquinimod],0,0,0,0,0,0
C[C@H]1Oc2cc(cnc2N)-c2c(nn(C)c2C#N)CN(C)C(=O)c2ccc(F)cc21,0.7,0,0,0.4,8.7,5.7
Cc1ccc(-n2nc(C(C)(C)C)cc2NC(=O)Nc2ccc(OCCN3CCOCC3)c3ccccc23)cc1 [Doramapimod],4.2,3.4,2.8,4.4,0.1,1.4
COc1cccc(OCCCN)c1-c1cc(Nc2cnc(C#N)cn2)n[nH]1 [Prexasertib],25.7,23.7,30.7,35,33.7,29.8
Cc1c(C(=O)Nc2ccc(N3C[C@@H](C)O[C@@H](C)C3)nc2)cccc1-c1ccc(OC(F)(F)F)cc1 [Sonidegib],0,0,0,0.6,0,0.6
NC(=O)/C(=C/n1cnc(-c2cc(C(F)(F)F)cc(C(F)(F)F)c2)n1)c1cncnc1 [Eltanexor],20,20.8,26.5,26.7,24.4,26.8
NCCNc1ccc(NCCN)c2c1C(=O)c1ccncc1C2=O [Pixantrone],0,0.1,9.4,1.7,0,0
CCCCC(=O)OCC(=O)[C@]1(O)Cc2c(O)c3c(c(O)c2[C@@H](O[C@H]2C[C@H](NC(=O)C(F)(F)F)[C@H](O)[C@H](C)O2)C1)C(=O)c1c(OC)cccc1C3=O [Valrubicin],19.7,17.1,24.1,17.6,15.3,18.4
CC1=C2C[C@H]3[C@@H](CC[C@@H]4C[C@H](NS(C)(=O)=O)CC[C@@]43C)[C@@H]2CC[C@@]2(C1)O[C@@H]1C[C@H](C)CN[C@H]1[C@H]2C [Saridegib],3.1,3.9,4.2,0,0,0
CC#CC(=O)N1CCC[C@H]1c1nc(-c2ccc(C(=O)Nc3ccccn3)cc2)c2c(N)nccn12 [Acalabrutinib],0,0,11,0,0,0
COc1ccc(-c2ccc3c(N4CCOC[C@@H]4C)nc(N4CCOC[C@@H]4C)nc3n2)cc1CO [AZD8055],21.3,18.1,19,17.9,11.4,21
CC(C)N(CCCNC(=O)Nc1ccc(C(C)(C)C)cc1)C[C@H]1O[C@@H](n2cc(Br)c3c(N)ncnc32)[C@H](O)[C@@H]1O [SGC0946],0.1,3.3,0,0,0,0
COc1cccc(-c2ccc(NC(=O)C3=C(C(=O)O)CCC3)c(F)c2)c1 [Vidofludimus],1.5,0.4,1.9,0,1.6,2
CO[C@H]1C[C@@H]2CC[C@@H](C)[C@@](O)(O2)C(=O)C(=O)N2CCCC[C@H]2C(=O)O[C@H]([C@H](C)C[C@@H]2CC[C@@H](OC(=O)C(C)(CO)CO)[C@H](OC)C2)CC(=O)[C@H](C)/C=C(\C)[C@@H](O)[C@@H](OC)C(=O)[C@H](C)C[C@H](C)/C=C/C=C/C=C/1C [Temsirolimus],16.8,14.2,8.6,8.8,0,11
Cc1ccc(NC(=O)c2ccc(CN3CCN(C)CC3)cc2)cc1Nc1nccc(-c2cccnc2)n1 [Imatinib],,,,2,7.3,1.4
Cc1cc(Nc2ncnc3ccc(NC4=NC(C)(C)CO4)cc23)ccc1Oc1ccn2ncnc2c1 [Tucatinib],2.9,0,2.5,0,0,0
O=C(NCc1ccncc1)C12CC3CC(C1)CC(c1ccc(Cl)cc1)(C3)C2,5.8,5.6,3.7,3.9,3.6,5
Cc1sc2c(c1C)C(c1ccc(Cl)cc1)=N[C@@H](CC(=O)Nc1ccc(O)cc1)c1nnc(C)n1-2 [Birabresib],10.7,13,8.2,19.5,8.7,15.6
CCS(=O)(=O)N1CCN(c2ccc(Nc3ncc(C(N)=O)c(NC4CC4)n3)cc2)CC1 [Cerdulatinib],0,4.3,1.1,0,4.3,1.1
CCCN(CCC)C(=O)C1=Cc2ccc(-c3ccc(C(=O)N4CCCC4)cc3)cc2N=C(N)C1 [Motolimod],1.3,0,1,0,0,2.4
CC[C@H](CO)Nc1nc(NCc2ccccc2)c2ncn(C(C)C)c2n1 [Seliciclib],,,,4.9,6.1,
CCN(CC)CCCC(C)Nc1ccnc2cc(Cl)ccc12 (configuration not stated) [Chloroquine],,,,12.8,6.4,6.4
Nc1ccn([C@@H]2O[C@H](CO)[C@@H](O)[C@@H]2O)c(=O)n1 [Cytarabine],,,,20.1,18.3,25.2
